Data from ChEMBL document CHEMBL1122054, “Lysosomotropic agents. 4. Carbobenzoxyglycylphenylalanyl, a new protease-sensitive masking group for introduction into cells” (J Med Chem, 1982).

Tests used:
Mus musculus [1] = organism: Mus musculus; test: Evaluated for the percent inhibition uptake of radiolabeled leucine as a measure of inhibition of protein synthesis i.e., cell death against the SV40-transformed 3T3 cells at 4 hr at the concentration of 6Mx10E4 for expt VII; format: functional, NIH3T3
Mus musculus [2] = organism: Mus musculus; test: Evaluated for the percent inhibition uptake of radiolabeled thymidine as a measure of inhibition of cell division against the SV40-transformed 3T3 cells at 4 hr at the concentration of 6Mx10E4 for expt VI; format: functional, NIH3T3
Mus musculus [3] = organism: Mus musculus; test: Evaluated for the percent inhibition uptake of radiolabeled leucine as a measure of inhibition of protein synthesis i.e., cell death against the SV40-transformed 3T3 cells at 4 hr at the concentration of 1Mx10E4 for expt VIII; format: functional, NIH3T3
Mus musculus [4] = organism: Mus musculus; test: Evaluated for the percent inhibition uptake of radiolabeled thymidine as a measure of inhibition of cell division against the SV40-transformed 3T3 cells at 4 hr at the concentration of 4Mx10E4 for expt VII; format: functional, NIH3T3
Mus musculus [5] = organism: Mus musculus; test: Toxicity was evaluated for the compound at a concentration of 0.104 mM against […] Mastocytoma.; format: functional
Mus musculus [6] = organism: Mus musculus; test: Toxicity toward P-815 Mastocytoma cells after 5 hr was determined as percent of [51Cr]- release from labeled cells as a measure of cell death at a concentration of 0.104 mM (expt IV); format: functional
Mus musculus [7] = organism: Mus musculus; test: Evaluated for the percent inhibition uptake of radiolabeled thymidine as a measure of inhibition of cell division against the SV40-transformed 3T3 cells at 4 hr at the concentration of 1Mx10E4 for expt VI; format: functional
Mus musculus [8] = organism: Mus musculus; test: Evaluated for the percent inhibition uptake of radiolabeled thymidine as a measure of inhibition of cell division against the SV40-transformed 3T3 cells at the concentration of 3*10^-4M after 3h; format: functional, NIH3T3
Mus musculus [9] = organism: Mus musculus; test: Toxicity was evaluated for the compound at a concentration of 0.312 mM against […] Mastocytoma.; format: functional
Mus musculus [10] = organism: Mus musculus; test: Evaluated for the percent inhibition uptake of radiolabeled thymidine as a measure of inhibition of cell division against the L1210 cells after 4 hr at the concentration of 3.0x10E4M; format: functional
Mus musculus [11] = organism: Mus musculus; test: Evaluated for the percent inhibition uptake of radiolabeled thymidine as a measure of inhibition of cell division against the SV40-transformed 3T3 cells at the concentration of 3*10^-4M after 6 hr; format: functional, NIH3T3
Mus musculus [12] = organism: Mus musculus; test: Evaluated for the percent inhibition uptake of radiolabeled thymidine as a measure of inhibition of cell division against the SV40-transformed 3T3 cells at the concentration of 3*10^-4M after 24 hr; format: functional, NIH3T3
Mus musculus [13] = organism: Mus musculus; test: Toxicity toward P-815 Mastocytoma cells after 5 hr was determined as percent of [51Cr]- release from labeled cells as a measure of cell death at a concentration of 0.312 mM (expt V); format: functional
Mus musculus [14] = organism: Mus musculus; test: Evaluated for the percent inhibition uptake of radiolabeled thymidine as a measure of inhibition of cell division against the SV40-transformed 3T3 cells at 4 hr at the concentration of 6Mx10E4 for expt VII; format: functional, NIH3T3
Mus musculus [15] = organism: Mus musculus; test: Evaluated for the percent inhibition uptake of radiolabeled leucine as a measure of inhibition of protein synthesis i.e., cell death against the SV40-transformed 3T3 cells at 4 hr at the concentration of 1Mx10E4 for expt VII; format: functional, NIH3T3
Mus musculus [16] = organism: Mus musculus; test: Evaluated for the percent inhibition uptake of radiolabeled thymidine as a measure of inhibition of cell division against the L1210 cells after 4 hr at the concentration of 0.5x10E4M; format: functional
Mus musculus [17] = organism: Mus musculus; test: Evaluated for the percent inhibition uptake of radiolabeled thymidine as a measure of inhibition of cell division against the SV40-transformed 3T3 cells after 4 hr at the concentration of 1x10E4M for experiment XI; format: functional, NIH3T3
Mus musculus [18] = organism: Mus musculus; test: Evaluated for the percent inhibition uptake of radiolabeled leucine as a measure of inhibition of protein synthesis i.e., cell death against the SV40-transformed 3T3 cells at 4 hr at the concentration of 3Mx10E4 for expt VII; format: functional, NIH3T3
Mus musculus [19] = organism: Mus musculus; test: Evaluated for the percent inhibition uptake of radiolabeled leucine as a measure of inhibition of protein synthesis i.e., cell death against the SV40-transformed 3T3 cells at 4 hr at the concentration of 3Mx10E4 for expt VIII; format: functional, NIH3T3
Mus musculus [20] = organism: Mus musculus; test: Evaluated for the percent inhibition uptake of radiolabeled thymidine as a measure of inhibition of cell division against the SV40-transformed 3T3 cells after 4 hr at the concentration of 6x10E4M for experiment XI; format: functional, NIH3T3
Mus musculus [21] = organism: Mus musculus; test: Evaluated for the percent inhibition uptake of radiolabeled thymidine as a measure of inhibition of cell division against the SV40-transformed 3T3 cells at 4 hr at the concentration of 3Mx10E4 for expt VII; format: functional, NIH3T3
Mus musculus [22] = organism: Mus musculus; test: Evaluated for the percent inhibition uptake of radiolabeled thymidine as a measure of inhibition of cell division against the SV40-transformed 3T3 cells after 4 hr at the concentration of 1x10E4M for experiment X; format: functional
Mus musculus [23] = organism: Mus musculus; test: Evaluated for the percent inhibition uptake of radiolabeled thymidine as a measure of inhibition of cell division against the SV40-transformed 3T3 cells at 4 hr at the concentration of 1Mx10E4 for expt VII; format: functional, NIH3T3
Mus musculus [24] = organism: Mus musculus; test: Evaluated for the percent inhibition uptake of radiolabeled thymidine as a measure of inhibition of cell division against the L1210 cells after 4 hr at the concentration of 1.5x10E4M; format: functional
Mus musculus [25] = organism: Mus musculus; test: Evaluated for the percent inhibition uptake of radiolabeled thymidine as a measure of inhibition of cell division against the SV40-transformed 3T3 cells at 4 hr at the concentration of 3Mx10E4 for expt VI; format: functional, NIH3T3
Mus musculus [26] = organism: Mus musculus; test: Evaluated for the percent inhibition uptake of radiolabeled thymidine as a measure of inhibition of cell division against the SV40-transformed 3T3 cells after 4 hr at the concentration of 3x10E4M for experiment X; format: functional, NIH3T3
Mus musculus [27] = organism: Mus musculus; test: Toxicity toward P-815 Mastocytoma cells after 5 hr was determined as percent of [51Cr]- release from labeled cells as a measure of cell death at a concentration of 0.208 mM (expt III); format: functional
Mus musculus [28] = organism: Mus musculus; test: Toxicity was evaluated for the compound at a concentration of 0.208 mM against […] Mastocytoma.; format: functional
Mus musculus [29] = organism: Mus musculus; test: Toxicity toward P-815 Mastocytoma cells after 5 hr was determined as percent of [51Cr]- release from labeled cells as a measure of cell death at a concentration of 0.312 mM (expt IV); format: functional
Mus musculus [30] = organism: Mus musculus; test: Toxicity toward P-815 Mastocytoma cells after 5 hr was determined as percent of [51Cr]- release from labeled cells as a measure of cell death at a concentration of 0.208 mM (expt IV); format: functional
Mus musculus [31] = organism: Mus musculus; test: Evaluated for the percent inhibition uptake of radiolabeled thymidine as a measure of inhibition of cell division against the SV40-transformed 3T3 cells after 4 hr at the concentration of 3x10E4M for experiment XI; format: functional, NIH3T3
Mus musculus [32] = organism: Mus musculus; test: Evaluated for the percent inhibition uptake of radiolabeled thymidine as a measure of inhibition of cell division against the SV40-transformed 3T3 cells after 4 hr at the concentration of 6x10E4M for experiment X; format: functional
Mus musculus [33] = organism: Mus musculus; test: Evaluated for the percent inhibition uptake of radiolabeled thymidine as a measure of inhibition of cell division against the SV40-transformed 3T3 cells at the concentration of 3*10^-4M after 8 hr; format: functional, NIH3T3
Mus musculus [34] = organism: Mus musculus; test: Evaluated for the percent inhibition uptake of radiolabeled thymidine as a measure of inhibition of cell division against the SV40-transformed 3T3 cells at the concentration of 3*10^-4M after 4 hr; format: functional, NIH3T3
Mus musculus [35] = organism: Mus musculus; test: Evaluated for the percent inhibition uptake of radiolabeled leucine as a measure of inhibition of protein synthesis i.e., cell death against the SV40-transformed 3T3 cells at 4 hr at the concentration of 6Mx10E4 for expt VIII; format: functional, NIH3T3
Mus musculus [36] = organism: Mus musculus; test: Evaluated for the percent inhibition uptake of radiolabeled thymidine as a measure of inhibition of cell division against the SV40-transformed 3T3 cells at 4 hr at the concentration of 10Mx10E4 for expt VII; format: functional, NIH3T3
Mus musculus [37] = organism: Mus musculus; test: Evaluated for the percent inhibition uptake of radiolabeled thymidine as a measure of inhibition of cell division against the SV40-transformed 3T3 cells after 4 hr at the concentration of 3x10E4M; format: functional, NIH3T3
Mus musculus [38] = organism: Mus musculus; test: Evaluated for the percent inhibition uptake of radiolabeled thymidine as a measure of inhibition of cell division against the SV40-transformed 3T3 cells after 4 hr at the concentration of 1x10E4M; format: functional, NIH3T3
Mus musculus [39] = organism: Mus musculus; test: Evaluated for the percent inhibition uptake of radiolabeled thymidine as a measure of inhibition of cell division against the SV40-transformed 3T3 cells after 4 hr at the concentration of 6; format: functional, NIH3T3
Mus musculus [40] = organism: Mus musculus; test: Toxicity was evaluated for the compound at a concentration of 0.257 mM against […] Mastocytoma.; format: functional
Mus musculus [41] = organism: Mus musculus; test: Toxicity toward P-815 Mastocytoma cells after 5 hr was determined as percent of [51Cr]- release from labeled cells as a measure of cell death. at a concentration of 0.257 mM. (expt III); format: functional
[42] = Compound in absence of MPM cell homogenate at pH 3 to isolate compound 4 (ng); format: ADME, cell-based
[43] = Compound treated with MPM cell homogenate at pH 4.5 to isolate compound 4 (ng); format: ADME, cell-based
MPM = test: Compound in presence of MPM cells and in absence of inactivator at pH 8 to isolate compound 4 (ng); format: cell-based
[44] = Compound in absence of MPM cell homogenate at pH 4.5 to isolate compound 4 (ng); format: ADME, cell-based
[45] = Compound in absence of MPM cell homogenate at pH 7 to isolate compound 4 (ng); format: ADME, cell-based
Mus musculus [46] = organism: Mus musculus; test: Toxicity toward P-815 Mastocytoma cells after 5 hr was determined as percent of [51Cr]- release from labeled cells as a measure of cell death. at a concentration of 0.331 mM. (expt III); format: functional
Mus musculus [47] = organism: Mus musculus; test: Toxicity was evaluated for the compound at a concentration of 0.331 mM against […] Mastocytoma.; format: functional

For O=C(CNC(=O)OCc1ccccc1)N[C@H](Cc1ccccc1)C(=O)N(CCCl)CCCl, the Inhibition uptake (Mus musculus [1]) was 36%, the Inhibition uptake (Mus musculus [2]) was 93% and the Inhibition uptake (Mus musculus [3]) was 5%. It also gave an Inhibition uptake (Mus musculus [4]) of 61%, a Toxicity (Mus musculus [5]) of 50 µg/mL and a Cr release (Mus musculus [6]) of 22%. It also gave an Inhibition uptake (Mus musculus [7]) of 7%, an Inhibition uptake (Mus musculus [8]) of 76% and a Toxicity (Mus musculus [9]) of 150 µg/mL. It also gave an Inhibition uptake (Mus musculus [10]) of 76%, an Inhibition uptake (Mus musculus [11]) of 83% and an Inhibition uptake (Mus musculus [12]) of 88%. For the same compound, the Cr release (Mus musculus [13]) was 19%, the Inhibition uptake (Mus musculus [14]) was 70% and the Inhibition uptake (Mus musculus [15]) was -1%. For the same compound, the Inhibition uptake (Mus musculus [16]) was 28%, the Inhibition uptake (Mus musculus [17]) was 36% and the Inhibition uptake (Mus musculus [18]) was 10%. The Inhibition uptake (Mus musculus [19]) was 33%, the Inhibition uptake (Mus musculus [20]) was 75% and the Inhibition uptake (Mus musculus [21]) was 46%. It also gave an Inhibition uptake (Mus musculus [22]) of 14%, an Inhibition uptake (Mus musculus [23]) of 12% and an Inhibition uptake (Mus musculus [24]) of 57%. The Inhibition uptake (Mus musculus [25]) was 60%, the Inhibition uptake (Mus musculus [26]) was 46% and the Cr release (Mus musculus [27]) was 29%. The Toxicity (Mus musculus [28]) was 100 µg/mL, the Cr release (Mus musculus [29]) was 34% and the Cr release (Mus musculus [30]) was 27%. The Inhibition uptake (Mus musculus [31]) was 36%, the Inhibition uptake (Mus musculus [32]) was 90% and the Inhibition uptake (Mus musculus [33]) was 86%. The Inhibition uptake (Mus musculus [34]) was 80%, the Inhibition uptake (Mus musculus [35]) was 83% and the Inhibition uptake (Mus musculus [36]) was 92%.
NCC(=O)N[C@H](Cc1ccccc1)C(=O)N(CCCl)CCCl gave an Inhibition uptake (Mus musculus [37]) of 16%, an Inhibition uptake (Mus musculus [38]) of 5% and an Inhibition uptake (Mus musculus [39]) of 60%.
In the case of CCCCCCCCCCCCNC(=O)[C@H](Cc1ccccc1)NC(=O)CN, the Toxicity (Mus musculus [40]) is reported as 100 µg/mL and the Cr release (Mus musculus [41]) is reported as 93%.
With CCCCCCCCCCCCN(CC(F)(F)F)C(=O)[C@H](Cc1ccccc1)NC(=O)CNC(=O)OCc1ccccc1 the Activity [42] was 44, the Activity [43] was < 20 and the Activity (MPM) was 20. For the same compound, the Activity [44] was 29, the Activity [45] was 28 and the Cr release (Mus musculus [46]) was 11%. The Toxicity (Mus musculus [47]) was 200 µg/mL.
